{"source": "paper PMC8770518", "about": "“Evolutionary alterations in gene expression and enzymatic activities of gibberellin 3-oxidase 1 in Oryza” (Communications Biology, 2022)", "key": {"OsGA3ox2": {"target": "T1, OsGA3ox2 (Oryza sativa, UniProt Q9FU53)", "T1 construct": "gene GA3OX2; crystallised without Fe(II)", "assay": "X-ray crystallography, […] A", "format": "binding", "conditions": "Fe(II) omitted, active site"}, "OsGA3ox1 [1]": {"target": "T2, OsGA3ox1 (Oryza sativa, UniProt Q6AT12)", "T2 construct": "gene GA3OX1", "assay": "in vitro 3-oxidation, gas chromatography of products", "format": "biochemical", "conditions": "products GA4 and GA7"}, "OsGA3ox1 [2]": {"target": "T3, OsGA3ox1 (Oryza sativa, UniProt Q6AT12, F235Y)", "T3 construct": "gene GA3OX1", "T3 sequence (Q6AT12 1-384 F235Y)": "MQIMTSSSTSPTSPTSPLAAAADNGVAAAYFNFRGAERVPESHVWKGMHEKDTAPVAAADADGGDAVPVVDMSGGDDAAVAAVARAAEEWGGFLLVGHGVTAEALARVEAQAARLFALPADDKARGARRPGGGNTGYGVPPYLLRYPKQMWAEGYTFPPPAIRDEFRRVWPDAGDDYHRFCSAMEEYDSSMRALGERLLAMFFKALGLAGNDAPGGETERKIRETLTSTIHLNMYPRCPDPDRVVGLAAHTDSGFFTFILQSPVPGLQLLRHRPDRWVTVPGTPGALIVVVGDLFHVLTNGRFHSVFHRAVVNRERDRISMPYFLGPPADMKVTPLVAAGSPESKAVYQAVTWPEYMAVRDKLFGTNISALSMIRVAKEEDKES", "assay": "in vitro 3-oxidation, gas chromatography of products", "format": "biochemical", "conditions": "products GA4 and GA7"}, "GID1": {"target": "T4, GID1 (Oryza sativa, UniProt Q6L545)", "T4 construct": "yeast two-hybrid fusions: GID1 bait in pGBKT7, SLR1 prey in pGADT7; with DELLA protein SLR1", "T4 sequence (Q6L545 1-354)": "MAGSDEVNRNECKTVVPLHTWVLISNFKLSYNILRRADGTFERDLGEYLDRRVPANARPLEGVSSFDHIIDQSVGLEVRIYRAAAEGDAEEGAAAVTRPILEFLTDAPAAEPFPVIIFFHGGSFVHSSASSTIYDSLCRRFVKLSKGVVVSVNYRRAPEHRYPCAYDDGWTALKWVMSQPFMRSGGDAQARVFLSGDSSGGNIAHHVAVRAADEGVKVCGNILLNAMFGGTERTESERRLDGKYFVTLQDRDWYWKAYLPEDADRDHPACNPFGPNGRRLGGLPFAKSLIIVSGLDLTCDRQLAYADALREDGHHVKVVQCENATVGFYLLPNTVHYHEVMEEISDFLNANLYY", "T4 sequence (Q7G7J6 1-625 partner)": "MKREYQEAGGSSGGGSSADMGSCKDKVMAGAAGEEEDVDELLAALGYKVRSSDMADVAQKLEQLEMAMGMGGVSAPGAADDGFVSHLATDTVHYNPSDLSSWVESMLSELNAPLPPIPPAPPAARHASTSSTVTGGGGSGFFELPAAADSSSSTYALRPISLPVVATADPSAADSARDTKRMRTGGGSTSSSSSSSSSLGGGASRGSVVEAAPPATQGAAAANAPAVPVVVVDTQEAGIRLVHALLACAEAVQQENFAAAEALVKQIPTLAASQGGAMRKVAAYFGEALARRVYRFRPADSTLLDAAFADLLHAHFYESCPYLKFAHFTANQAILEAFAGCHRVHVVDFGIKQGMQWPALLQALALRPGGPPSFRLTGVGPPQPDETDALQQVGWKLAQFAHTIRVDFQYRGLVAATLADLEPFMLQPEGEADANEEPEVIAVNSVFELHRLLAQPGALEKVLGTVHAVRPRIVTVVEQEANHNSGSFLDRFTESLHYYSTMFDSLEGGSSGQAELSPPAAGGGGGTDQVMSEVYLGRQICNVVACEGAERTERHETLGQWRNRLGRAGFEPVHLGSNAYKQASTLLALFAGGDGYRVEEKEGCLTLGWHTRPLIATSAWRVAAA", "assay": "yeast two-hybrid GID1-SLR1 interaction (-His growth)", "format": "cell-based", "conditions": "GA-dependent interaction with SLR1; GA 1e-10 to 1e-5 M"}}}
{"compound": "C=C1C[C@]23C[C@H]1CC[C@H]2[C@@]12CCC[C@@](C)(C(=O)O1)[C@H]2[C@@H]3C(=O)O", "note": "[GA9]", "values": [{"measurement": "X-ray crystallography, 1.9 A", "setting": "OsGA3ox2; complex with 2-oxoglutarate, 0.5 mM GA9, pH 7.0", "value": "structure of the OsGA3ox2 complex with (co-) substrates; GA9 and 2-oxoglutarate (2OG)"}, {"measurement": "in vitro 3-oxidation, gas chromatography of products", "setting": "OsGA3ox1 [1]", "value": "GA biosynthesis activities of recombinant OsGA3ox1 and OsGA3ox2 for GA9 as a substrate"}, {"measurement": "in vitro 3-oxidation, gas chromatography of products", "setting": "OsGA3ox1 [2]", "value": "The productivity of GA7 was lower in F235Y-OsGA3ox1 than that in OsGA3ox1"}]}
{"compound": "C=C1C[C@]23C[C@H]1CC[C@H]2[C@@]12CC[C@H](O)[C@@](C)(C(=O)O1)[C@H]2[C@@H]3C(=O)O", "note": "[GA4]", "values": [{"measurement": "yeast two-hybrid GID1-SLR1 interaction (-His growth)", "setting": "GID1", "value": "GA7 showed the highest efficiency among all GA ligands, followed by GA4"}]}
{"compound": "O=C(O)CCC(=O)C(=O)O", "note": "[2-oxoglutarate]", "values": [{"measurement": "X-ray crystallography, 1.9 A", "setting": "OsGA3ox2; complex with GA9, 10 mM 2-oxoglutarate, pH 7.0", "value": "structure of the OsGA3ox2 complex with (co-) substrates; GA9 and 2-oxoglutarate (2OG)"}]}
{"compound": "C=C1C[C@]23C[C@H]1CC[C@H]2[C@@]12C=C[C@H](O)[C@@](C)(C(=O)O1)[C@H]2[C@@H]3C(=O)O", "note": "[GA7]", "values": [{"measurement": "yeast two-hybrid GID1-SLR1 interaction (-His growth)", "setting": "GID1", "value": "GA7 showed the highest efficiency among all GA ligands, followed by GA4"}]}
